Measured values reported in patent publication US10858422B2, “Methods for treating systemic lupus erythematosus with an anti-apolipoprotein B antibody” (Abcentra, LLC, priority 2016, dated 2020).

Tests used:
[1] = test system: healthy subjects with elevated LDL cholesterol; experiment: Phase I dose-escalation trial: biomarkers and lipids; type: in vivo, human; conditions: healthy volunteers
Text: Study population: 80 healthy subjects with elevated LDL cholesterol.
The panel included: oxLDL, Lp-PLA2, hsCRP, sCD36, MCP-1, ICAM-1, IL-10, VCAM-1, IL-1ra, TNFα, insulin, and MMP-3.

[2] = test system: patients with atherosclerosis and evidence of carotid or aortic plaque inflammation; experiment: Phase IIa: arterial inflammation by FDG-PET/CT (index vessel MDS-TBR); type: in vivo, human; conditions: versus placebo; single (1245 mg IV) and multiple infusion groups
Experimental: The study enrolled 147 participants (83% male; mean age 63.0±9.0 years) with atherosclerosis and evidence of carotid or aortic plaque inflammation, measured by FDG-PET/computed tomography (CT). Because there is poor correlation between serum LDL levels and both serum and plaque oxLDL levels, patients were enrolled with a relatively wide range of serum LDL levels (fasting LDL>60 mg/dL at screening, which includes patients both above and below National Cholesterol Education Program Adult Treatment Panel III treatment goals). 139 patients completed the study.
The study consisted of a 28-day screening period, a 78-day treatment period, and a 90-day follow-up period. […] During the screening period, patient acceptability for the study was assessed on the basis of medical history, concomitant medications, physical examination, and clinical laboratory test results. Once a patient passed this initial screening phase, acceptability for study participation was confirmed on the basis of a TBR>1.8 in the qualifying vessel, as quantified by FDG-PET/CT. […]
The primary outcome variable was change in index vessel MDS-TBR (most diseased segment-target to background ratio) measured by FDG-PET/CT from baseline to week 12. Arterial FDG uptake was assessed as target to-background ratio (TBR). […]

B6.lpr.ApoE−/− mice [3] = experiment: Atherosclerosis: en face Oil Red O of aortic arch, subvalvular plaque area, Oil Red O and CD68; type: in vivo, mouse; conditions: for reduction of subvalvular plaque area / development: three injections of the antibody
B6.lpr.ApoE−/− mice [4] = experiment: Carotid artery mRNA expression; type: in vivo, mouse; conditions: 1 mg i.p. weekly x3; vs control IgG
Experimental: Statistics: Clinical comparisons from human individuals were evaluated and statistically tested using SPSS software. For same-individual analyses, paired nonparametric Wilxocon rank test was used. For normally distributed data, Students t-test was used. For not normally distributed data, Mann-Whitney rank test was used. Numerical data is expressed as mean±standard deviation if normally distributed or median±intra-quartile range if not normally distributed. Carotid gene expressions were log transformed and expressed as arbitrary units (A.U) and relative fold change respectively. All data was plotted in GraphPad Prism and significance levels used are *=p<0.05 **=p<0.01, ***=p<0.001.

[5] = test system: PBMC isolated from SLE patients; experiment: Uptake of DiI-oxLDL and cytokine release in SLE PBMC with MDA.P45-IgG; type: cell-based, human; conditions: 10 μg/ml antibody with 10 μg/ml labelled oxLDL, 24 hours
Experimental: Flow cytometry analysis of PBMCs stimulated with DIloxLDL and MDA.P45-IgG antibody: PBMCs were slowly thawed in 37° C. PBS with 2% autologous serum, counted and seeded into appropriate medium and conditions. Medium for each stimuli condition was prepared from complete RPMI (cRPMI, 10 U/ml Penicillin/streptomycin, 1% L-glutamine, 1% sodium pyruvate, 1% Hepes and 0.1% mercaptoethanol) with 2% autologous serum (Sigma Aldrich) including the respective stimuli conditions and pre-incubated in 37° C. for 1 h before stimulating the cells with it. Condition 1; unstimulated, condition 2; 10 μg/ml Dil-OxLDL (Thermo Scientific), condition 3; 10 μg/ml Dil-OxLDL with MDA.P45-IgG. (Dil-OxLDL refers to oxidized LDL complexed with Dil dye).
At time of experiment, cells were slowly thawed in 37° C. PBS containing 2% autologous serum. Cells were counted and all cells obtained were divided into three wells for respective condition mentioned above for 24 h at 37° C. in 5% CO2. After 24 h stimulation, medium was harvested and kept in −80° C. until cytokine analysis. Cells were washed twice in FACS buffer (PBS 1% bovine serum albumin […] EDTA), then stained with Zombie Aqua viability dye for 20 minutes in room temperature (RT). This was followed by another wash then incubation with anti-HLA-DR APC-Cy7 anti-CD3-PECy7 and anti-CD14-AF700 for 30 minutes in RT prior acquisition in Gallios flow cytometer (Beckman Coulter, Brea, Calif., USA). Cell populations were manually gated in FlowJo LTT (Tree Star, San Diego, Calif., USA).
Multiplex analysis of PBMC cell culture medium: Cell culture medium from human SLE and control PBMCs were thawed on ice before analyzed using Multiplex Inflammation assay (Merck, Millipore, Burlington, Mass., USA) according to following kit instructions.
Having observed the protective effect of MDA-p45 IgG on atherosclerosis development in B6.lpr.ApoE−/− mice, we next investigated how this antibody affected the interaction of SLE PBMC with oxLDL. We incubated the cells with 10 μg/ml of fluorescently labelled oxLDL for 24 hours with and without addition of 10 μg/ml MDA-p45 IgG.

[6] = male mice, 1 mg i.p. weekly for three weeks, vs control IgG

orticumab: recombinant human IgG1 against MDA-modified peptide 45 of ApoB100; heavy chain SEQ ID NO: 316, light chain SEQ ID NO: 317
biomarkers (oxLDL, Lp-PLA2, hsCRP, sCD36, MCP-1, ICAM-1, IL-10, VCAM-1, IL-1ra, TNFα, insulin, MMP-3) [1]: No treatment-induced general effects
arterial inflammation (index vessel MDS-TBR), baseline to week 12 [2]: did not significantly reduce
lipid accumulation in subvalvular plaques (B6.lpr.ApoE−/− mice [3]; [6]): trend towards decreased
reduction of CD68-macrophage subvalvular plaque staining (B6.lpr.ApoE−/− mice [3]; [6]): 30.5%
reduction of atherosclerosis in the aortic arch (B6.lpr.ApoE−/− mice [3]; [6]): 42.8%
reduction of subvalvular plaque area / development (B6.lpr.ApoE−/− mice [3]): 50%
reduction of subvalvular plaque area / development (B6.lpr.ApoE−/− mice [3]; listed as MDA-P45 specific antibody): 50.3%
mRNA expression of IL-10 or MCP-1 in carotid arteries (B6.lpr.ApoE−/− mice [4]): no effect
cellular uptake of oxLDL [5]: increased cellular uptake
expression of CD14 and uptake of oxLDL in CD14+ APC [5]: increased
release of anti-inflammatory cytokine IL-1RA [5]: modest increase
